Laboratory results taken from ChEMBL document CHEMBL5715952 (Oncotarget, 2015).

Key:
[1] = Ratio of IC50 for inhibition of CSF1R/FLT3 in human ANBL6 cells assessed as reduction of cell viability to IC50 for inhibition of CSF1R/FLT3 in human ANBL6/BR resistant cells assessed as reduction of cell viability; settings: condition multiple myeloma
[2] = Inhibition of CSF1R/FLT3 in human RPMI-8226 cells assessed as reduction of cell growth incubated for 72 hrs by CellTiter 96 aqueous one solution cell proliferation assay; format: cell-based; settings: RPMI-8226, 72 h
[3] = Inhibition of CSF1R/FLT3 in human bortezomib-resistant ANBL6 cells assessed as reduction of cell growth incubated for 72 hrs by CellTiter 96 aqueous one solution cell proliferation assay; format: cell-based
[4] = Inhibition of CSF1R/FLT3 in bortezomib Resistant human RPMI-8226 cells assessed as reduction of cell growth incubated for 72 hrs by CellTiter 96 aqueous one solution cell proliferation assay; format: cell-based; settings: Bortezomib-resistant RPMI-8226, 72 h
[5] = Inhibition of CSF1R/FLT3 in human ANBL-6 cells assessed as reduction of cell growth incubated for 72 hrs by CellTiter 96 aqueous one solution cell proliferation assay; format: cell-based; settings: ANBL-6, 72 h
[6] = Inhibition of CSF1R/FLT3 in Melphalan Resistant human RPMI-8226 cells assessed as reduction of cell growth incubated for 72 hrs by CellTiter 96 aqueous one solution cell proliferation assay; format: cell-based; settings: Melphalan-resistant RPMI-8226 cell
[7] = Ratio of IC50 for inhibition of CSF1R/FLT3 in human RPMI-8226 cells assessed as reduction of cell viability to IC50 for inhibition of CSF1R/FLT3 in human RPMI-8226/BR resistant cells assessed as reduction of cell viability; settings: condition multiple myeloma
[8] = Ratio of IC50 for inhibition of CSF1R/FLT3 in human RPMI-8226 cells assessed as reduction of cell viability to IC50 for inhibition of CSF1R/FLT3 in human melphalan-resistant RPMI-8226 cells assessed as reduction of cell viability; settings: time 72 hrs; condition multiple myeloma
[9] = Inhibition of CSF1R/FLT3 in human U-266 cells assessed as reduction of cell growth incubated for 72 hrs by CellTiter 96 aqueous one solution cell proliferation assay; format: cell-based; settings: U-266, 72 h
[10] = Ratio of IC50 for inhibition of PI3K/mTOR/ATM in human RPMI-8226 cells assessed as reduction of cell viability to IC50 for inhibition of PI3K/mTOR/ATM in human RPMI-8226/BR resistant cells assessed as reduction of cell viability; settings: condition multiple myeloma
[11] = Inhibition of PI3K/mTOR/ATM in human U-266 cells assessed as reduction of cell growth incubated for 72 hrs by CellTiter 96 aqueous one solution cell proliferation assay; format: cell-based; settings: U-266, 72 h
[12] = Inhibition of PI3K/mTOR/ATM in Melphalan Resistant human RPMI-8226 cells assessed as reduction of cell growth incubated for 72 hrs by CellTiter 96 aqueous one solution cell proliferation assay; format: cell-based; settings: Melphalan-resistant RPMI-8226 cell
[13] = Ratio of IC50 for inhibition of PI3K/mTOR/ATM in human ANBL6 cells assessed as reduction of cell viability to IC50 for inhibition of PI3K/mTOR/ATM in human ANBL6/BR resistant cells assessed as reduction of cell viability; settings: condition multiple myeloma
[14] = Inhibition of PI3K/mTOR/ATM in human ANBL-6 cells assessed as reduction of cell growth incubated for 72 hrs by CellTiter 96 aqueous one solution cell proliferation assay; format: cell-based; settings: ANBL-6, 72 h
[15] = Inhibition of PI3K/mTOR/ATM in bortezomib Resistant human RPMI-8226 cells assessed as reduction of cell growth incubated for 72 hrs by CellTiter 96 aqueous one solution cell proliferation assay; format: cell-based; settings: Bortezomib-resistant RPMI-8226, 72 h
[16] = Inhibition of PI3K/mTOR/ATM in human bortezomib-resistant ANBL6 cells assessed as reduction of cell growth incubated for 72 hrs by CellTiter 96 aqueous one solution cell proliferation assay; format: cell-based
[17] = Ratio of IC50 for inhibition of PI3K/mTOR/ATM in human RPMI-8226 cells assessed as reduction of cell viability to IC50 for inhibition of PI3K/mTOR/ATM in human melphalan-resistant RPMI-8226 cells assessed as reduction of cell viability; settings: time 72 hrs; condition multiple myeloma
[18] = Inhibition of PI3K/mTOR/ATM in human RPMI-8226 cells assessed as reduction of cell growth incubated for 72 hrs by CellTiter 96 aqueous one solution cell proliferation assay; format: cell-based; settings: RPMI-8226, 72 h
[19] = Inhibition of VEGFR2/PDGFR/cKIT/RET in human RPMI-8226 cells assessed as reduction of cell growth incubated for 72 hrs by CellTiter 96 aqueous one solution cell proliferation assay; format: cell-based; settings: RPMI-8226, 72 h
[20] = Inhibition of VEGFR3/PDGFR/cKIT/RET in bortezomib Resistant human RPMI-8226 cells assessed as reduction of cell growth incubated for 72 hrs by CellTiter 96 aqueous one solution cell proliferation assay; format: cell-based; settings: Bortezomib-resistant RPMI-8226, 72 h
[21] = Inhibition of VEGFR1/PDGFR/cKIT/RET in human RPMI-8226 cells assessed as reduction of cell growth incubated for 72 hrs by CellTiter 96 aqueous one solution cell proliferation assay; format: cell-based; settings: RPMI-8226, 72 h
[22] = Inhibition of VEGFR3/PDGFR/cKIT/RET in human U-266 cells assessed as reduction of cell growth incubated for 72 hrs by CellTiter 96 aqueous one solution cell proliferation assay; format: cell-based; settings: U-266, 72 h
[23] = Inhibition of VEGFR2/PDGFR/cKIT/RET in human bortezomib-resistant ANBL6 cells assessed as reduction of cell growth incubated for 72 hrs by CellTiter 96 aqueous one solution cell proliferation assay; format: cell-based
[24] = Inhibition of VEGFR2/PDGFR/cKIT/RET in human U-266 cells assessed as reduction of cell growth incubated for 72 hrs by CellTiter 96 aqueous one solution cell proliferation assay; format: cell-based; settings: U-266, 72 h
[25] = Inhibition of VEGFR3/PDGFR/cKIT/RET in human bortezomib-resistant ANBL6 cells assessed as reduction of cell growth incubated for 72 hrs by CellTiter 96 aqueous one solution cell proliferation assay; format: cell-based
[26] = Inhibition of VEGFR1/PDGFR/cKIT/RET in Melphalan Resistant human RPMI-8226 cells assessed as reduction of cell growth incubated for 72 hrs by CellTiter 96 aqueous one solution cell proliferation assay; format: cell-based; settings: Melphalan-resistant RPMI-8226 cell
[27] = Ratio of IC50 for inhibition of VEGFR2/PDGFR/cKIT/RET in human ANBL6 cells assessed as reduction of cell viability to IC50 for inhibition of VEGFR2/PDGFR/cKIT/RET in human ANBL6/BR resistant cells assessed as reduction of cell viability; settings: condition multiple myeloma
[28] = Ratio of IC50 for inhibition of VEGFR1/PDGFR/cKIT/RET in human RPMI-8226 cells assessed as reduction of cell viability to IC50 for inhibition of VEGFR1/PDGFR/cKIT/RET in human melphalan-resistant RPMI-8226 cells assessed as reduction of cell viability; settings: time 72 hrs; condition multiple myeloma
[29] = Ratio of IC50 for inhibition of VEGFR3/PDGFR/cKIT/RET in human RPMI-8226 cells assessed as reduction of cell viability to IC50 for inhibition of VEGFR3/PDGFR/cKIT/RET in human RPMI-8226/BR resistant cells assessed as reduction of cell viability; settings: condition multiple myeloma
[30] = Ratio of IC50 for inhibition of VEGFR1/PDGFR/cKIT/RET in human RPMI-8226 cells assessed as reduction of cell viability to IC50 for inhibition of VEGFR1/PDGFR/cKIT/RET in human RPMI-8226/BR resistant cells assessed as reduction of cell viability; settings: condition multiple myeloma
[31] = Inhibition of VEGFR1/PDGFR/cKIT/RET in human ANBL-6 cells assessed as reduction of cell growth incubated for 72 hrs by CellTiter 96 aqueous one solution cell proliferation assay; format: cell-based; settings: ANBL-6, 72 h
[32] = Inhibition of VEGFR3/PDGFR/cKIT/RET in human ANBL-6 cells assessed as reduction of cell growth incubated for 72 hrs by CellTiter 96 aqueous one solution cell proliferation assay; format: cell-based; settings: ANBL-6, 72 h
[33] = Ratio of IC50 for inhibition of VEGFR3/PDGFR/cKIT/RET in human ANBL6 cells assessed as reduction of cell viability to IC50 for inhibition of VEGFR3/PDGFR/cKIT/RET in human ANBL6/BR resistant cells assessed as reduction of cell viability; settings: condition multiple myeloma
[34] = Inhibition of VEGFR2/PDGFR/cKIT/RET in human ANBL-6 cells assessed as reduction of cell growth incubated for 72 hrs by CellTiter 96 aqueous one solution cell proliferation assay; format: cell-based; settings: ANBL-6, 72 h
[35] = Inhibition of VEGFR2/PDGFR/cKIT/RET in bortezomib Resistant human RPMI-8226 cells assessed as reduction of cell growth incubated for 72 hrs by CellTiter 96 aqueous one solution cell proliferation assay; format: cell-based; settings: Bortezomib-resistant RPMI-8226, 72 h
[36] = Ratio of IC50 for inhibition of VEGFR2/PDGFR/cKIT/RET in human RPMI-8226 cells assessed as reduction of cell viability to IC50 for inhibition of VEGFR2/PDGFR/cKIT/RET in human RPMI-8226/BR resistant cells assessed as reduction of cell viability; settings: condition multiple myeloma
[37] = Ratio of IC50 for inhibition of VEGFR2/PDGFR/cKIT/RET in human RPMI-8226 cells assessed as reduction of cell viability to IC50 for inhibition of VEGFR2/PDGFR/cKIT/RET in human melphalan-resistant RPMI-8226 cells assessed as reduction of cell viability; settings: time 72 hrs; condition multiple myeloma
[38] = Inhibition of VEGFR3/PDGFR/cKIT/RET in Melphalan Resistant human RPMI-8226 cells assessed as reduction of cell growth incubated for 72 hrs by CellTiter 96 aqueous one solution cell proliferation assay; format: cell-based; settings: Melphalan-resistant RPMI-8226 cell
[39] = Inhibition of VEGFR1/PDGFR/cKIT/RET in human U-266 cells assessed as reduction of cell growth incubated for 72 hrs by CellTiter 96 aqueous one solution cell proliferation assay; format: cell-based; settings: U-266, 72 h
[40] = Inhibition of VEGFR1/PDGFR/cKIT/RET in bortezomib Resistant human RPMI-8226 cells assessed as reduction of cell growth incubated for 72 hrs by CellTiter 96 aqueous one solution cell proliferation assay; format: cell-based; settings: Bortezomib-resistant RPMI-8226, 72 h
[41] = Inhibition of VEGFR1/PDGFR/cKIT/RET in human bortezomib-resistant ANBL6 cells assessed as reduction of cell growth incubated for 72 hrs by CellTiter 96 aqueous one solution cell proliferation assay; format: cell-based
[42] = Ratio of IC50 for inhibition of VEGFR3/PDGFR/cKIT/RET in human RPMI-8226 cells assessed as reduction of cell viability to IC50 for inhibition of VEGFR3/PDGFR/cKIT/RET in human melphalan-resistant RPMI-8226 cells assessed as reduction of cell viability; settings: time 72 hrs; condition multiple myeloma
[43] = Ratio of IC50 for inhibition of VEGFR1/PDGFR/cKIT/RET in human ANBL6 cells assessed as reduction of cell viability to IC50 for inhibition of VEGFR1/PDGFR/cKIT/RET in human ANBL6/BR resistant cells assessed as reduction of cell viability; settings: condition multiple myeloma
[44] = Inhibition of VEGFR3/PDGFR/cKIT/RET in human RPMI-8226 cells assessed as reduction of cell growth incubated for 72 hrs by CellTiter 96 aqueous one solution cell proliferation assay; format: cell-based; settings: RPMI-8226, 72 h
[45] = Inhibition of VEGFR2/PDGFR/cKIT/RET in Melphalan Resistant human RPMI-8226 cells assessed as reduction of cell growth incubated for 72 hrs by CellTiter 96 aqueous one solution cell proliferation assay; format: cell-based; settings: Melphalan-resistant RPMI-8226 cell
[46] = Ratio of IC50 for inhibition of hedgehog in human RPMI-8226 cells assessed as reduction of cell viability to IC50 for inhibition of hedgehog in human RPMI-8226/BR resistant cells assessed as reduction of cell viability; settings: condition multiple myeloma
cells [47] = settings: Homo sapiens, Bortezomib-resistant RPMI-8226, 72 h
cells [48] = settings: Homo sapiens, Melphalan-resistant RPMI-8226 cell, 72 h
[49] = Ratio of IC50 for inhibition of hedgehog in human RPMI-8226 cells assessed as reduction of cell viability to IC50 for inhibition of hedgehog in human melphalan-resistant RPMI-8226 cells assessed as reduction of cell viability; settings: time 72 hrs; condition multiple myeloma
cells [50] = settings: Homo sapiens, RPMI-8226, 72 h
cells [51] = settings: Homo sapiens, Bortezomib-resistant ANBL6 cell, 72 h
cells [52] = settings: Homo sapiens, U-266, 72 h
[53] = Ratio of IC50 for inhibition of hedgehog in human ANBL6 cells assessed as reduction of cell viability to IC50 for inhibition of hedgehog in human ANBL6/BR resistant cells assessed as reduction of cell viability; settings: condition multiple myeloma
cells [54] = settings: Homo sapiens, ANBL-6, 72 h

CN(C)CC(=O)N1CCC(c2ccc(NC(=O)c3nc(C#N)c[nH]3)c(C3=CCCCC3)c2)CC1
10 µM: IC50 [2] | IC50 [3] | IC50 [4] | IC50 [5] | IC50 [6] | IC50 [9]
1: Ratio IC50 [1] | Ratio IC50 [7] | Ratio IC50 [8]

O=c1cc(-c2cccc3c2Sc2ccccc2S3)oc(N2CCOCC2)c1 [KU-55933]
10 µM: IC50 [11] | IC50 [12] | IC50 [14] | IC50 [15] | IC50 [16] | IC50 [18]
1: Ratio IC50 [10] | Ratio IC50 [13] | Ratio IC50 [17]

CC1(C)CNc2cc(NC(=O)c3cccnc3NCc3ccncc3)ccc21 [MOTESANIB]
10 µM: IC50 [19] | IC50 [20] | IC50 [21] | IC50 [22] | IC50 [23] | IC50 [24] | IC50 [25] | IC50 [26] | IC50 [31] | IC50 [32] | IC50 [34] | IC50 [35] | IC50 [38] | IC50 [39] | IC50 [40] | IC50 [41] | IC50 [44] | IC50 [45]
1: Ratio IC50 [27] | Ratio IC50 [28] | Ratio IC50 [29] | Ratio IC50 [30] | Ratio IC50 [33] | Ratio IC50 [36] | Ratio IC50 [37] | Ratio IC50 [42] | Ratio IC50 [43]

CS(=O)(=O)c1ccc(C(=O)Nc2ccc(Cl)c(-c3ccccn3)c2)c(Cl)c1 [VISMODEGIB]
10 µM: IC50 (cells [47]) | IC50 (cells [48]) | IC50 (cells [50]) | IC50 (cells [51]) | IC50 (cells [52]) | IC50 (cells [54])
1: Ratio IC50 [46] | Ratio IC50 [49] | Ratio IC50 [53]
